Data reported in ChEMBL document CHEMBL2069272, “Leishmanicidal activities and cytotoxicities of bisnaphthoquinone analogues and naphthol derivatives from Burman Diospyros burmanica” (Bioorg Med Chem, 2012).
pIC50: −log10 of the molar value. Residues, ends and D or L forms follow the SMILES beside them. *: point of attachment. Cbz = O=C(OCc1ccccc1)*

Key:
[1] = Toxicity against mouse RAW264.7 cells by XTT assay; type: cell-based
[2] = Selectivity index, ratio of IC50 for mouse RAW264.7 cells to IC50 for Leishmania major promastigotes; type: toxicity, cell-based; details: RAW264.7 cells versus Leishmania major promastigotes, read-out: Ratio IC50
Leishmania major = experiment: Antileishmanial activity against Leishmania major promastigotes incubated for 48 hrs by MTT assay; type: functional, organism-based

SMILES: CC(C)C[C@@H](C=O)NC(=O)[C@H](CC(C)C)NC(=O)[C@H](CC(C)C)NC(=O)OCc1ccccc1 [MG-132] (Cbz-Leu-Leu-Leu-aldehyde)
- pIC50 [1]: 6.20

SMILES: COc1c(O)ccc2c1C(=O)C(C)=CC2=O
- selectivity ratio [2]: 1.03
- pIC50 [1]: 4.02
- pIC50 (Leishmania major): 4.03

SMILES: COc1cccc2c1C(=O)C=C(C)C2=O
- selectivity ratio [2]: 13.6
- pIC50 [1]: 4.35
- pIC50 (Leishmania major): 5.48

SMILES: COc1c(C)cc2cccc(OC)c2c1O
- selectivity ratio [2]: > 2.22
- pIC50 [1]: < 4.00
- pIC50 (Leishmania major): 4.35

SMILES: C[C@@H]1[C@H](O)[C@@H](C)/C=C/C=C/C=C/C=C/C=C/C=C/C=C/[C@H](O[C@@H]2O[C@H](C)[C@@H](O)[C@H](N)[C@@H]2O)C[C@@H]2O[C@](O)(C[C@@H](O)C[C@@H](O)[C@H](O)CC[C@@H](O)C[C@@H](O)CC(=O)O[C@H]1C)C[C@H](O)[C@H]2C(=O)O [AMPHOTERICIN B]
- pIC50 (Leishmania major): 7.46

SMILES: COc1ccc(OC)c2c1C(=O)C=C(C)C2=O
- pIC50 [1]: < 4.00

SMILES: COc1cccc2cc(C)cc(O)c12
- selectivity ratio [2]: > 2
- pIC50 [1]: < 4.00
- pIC50 (Leishmania major): 4.30

SMILES: COc1c(C)cc(O)c2c(OC)cccc12
- pIC50 [1]: < 4.00
- pIC50 (Leishmania major): < 4.00

SMILES: COc1cc(C)cc2c1C(=O)C=C(c1c(C)c(OC)c3ccc(O)c(OC)c3c1O)C2=O [BURMANIN C]
- selectivity ratio [2]: 147
- pIC50 [1]: 4.66
- pIC50 (Leishmania major): 6.82

SMILES: COc1cccc2c1C(=O)C(O)=C(C)C2=O
- pIC50 [1]: < 4.00
- pIC50 (Leishmania major): < 4.00

SMILES: COc1cc(C)cc2c1C(=O)C=C(c1c(C)cc3ccc(O)c(OC)c3c1O)C2=O [BURMANIN B]
- selectivity ratio [2]: 172
- pIC50 [1]: 4.51
- pIC50 (Leishmania major): 6.74

SMILES: COc1cccc2cc(C=O)cc(O)c12
- pIC50 [1]: < 4.00
- pIC50 (Leishmania major): < 4.00

SMILES: COc1ccc(OC)c2c(O)cc(C)cc12
- selectivity ratio [2]: > 2.63
- pIC50 [1]: < 4.00
- pIC50 (Leishmania major): 4.42

SMILES: COc1cc(C)cc2c1C(=O)C=C(C1=C(C)C(=O)c3ccc(O)c(OC)c3C1=O)C2=O [BURMANIN A]
- selectivity ratio [2]: 453
- pIC50 [1]: 4.62
- pIC50 (Leishmania major): 7.28
